In general, IC50 refers to the concentration needed to halve the response being measured. The GI50 is the concentration that inhibits growth by half. Low values mean more potent growth inhibition, high ones less potent growth inhibition.

Where only a bound is given, the exact number is not on record here.

Results on 16 compounds are retold here after US20240197715A1, “PHARMACEUTICAL COMBINATIONS AND USES THEREOF” (NOVARTIS AG, priority 2022, published 2024).

Assay [1] concerns SW48. Description: CellTiterGlo in vitro viability, 4-day treatment, SW48. The format is cell-based. From the text: (§1) Growth inhibition %: 0-99=delayed proliferation, 100=growth arrest/stasis, 101-200=reduction in cell number/cell death.
(In general: ATP-based viability assays read luminescence as a measure of living cells.)

The next assay has as its system HCT116. Description: CellTiterGlo in vitro viability, 4-day treatment, HCT116. The class given is cell-based.
Excerpt: as §1

Another assay has as its target WRN (Homo sapiens, UniProt Q14191). Description: WRN ATPase activity assay. Particulars: assay of WO2022/249060. The format is biochemical. From the text:
(§2) According to the assays disclosed in the application PCT/IB2022/054850 published as WO2022/249060, which is hereby incorporated by reference, the compounds were active as shown in Table X

For assay [2], the system named is SW48. Description: Proliferation assay SW48. Particulars: Homo sapiens, assay of WO2022/249060. The format is cell-based.
Excerpt: as §2

The subject of another assay is DLD1-WRN-KO. Description: Proliferation assay DLD1-WRN-KO. The class given is cell-based. Conditions: assay of WO2022/249060.
Excerpt: as §2

For assay [3], the system named is SW48 colorectal carcinoma cells. Nature of the assay: SW48 xenograft efficacy in nude mice. The class given is in vivo. Particulars: Example 12; trametinib 0.3 mg/kg p.o. qd; BRAF WT SW48. The method, then: All animals were allowed to adapt for 7 days and housed in a pathogen-controlled environment (5 mice/Type III cage) with access to food and water ad libitum and were identified with transponders.
5.0×10^6 SW48 colorectal carcinoma cells were implanted subcutaneously in nude mice (Charles River, Germany). Treatment was initiated when tumors reached 150-200 mm^3 volume. Efficacy studies and tumor response were measured as above.

WRN, sequence (Q14191 whole entry): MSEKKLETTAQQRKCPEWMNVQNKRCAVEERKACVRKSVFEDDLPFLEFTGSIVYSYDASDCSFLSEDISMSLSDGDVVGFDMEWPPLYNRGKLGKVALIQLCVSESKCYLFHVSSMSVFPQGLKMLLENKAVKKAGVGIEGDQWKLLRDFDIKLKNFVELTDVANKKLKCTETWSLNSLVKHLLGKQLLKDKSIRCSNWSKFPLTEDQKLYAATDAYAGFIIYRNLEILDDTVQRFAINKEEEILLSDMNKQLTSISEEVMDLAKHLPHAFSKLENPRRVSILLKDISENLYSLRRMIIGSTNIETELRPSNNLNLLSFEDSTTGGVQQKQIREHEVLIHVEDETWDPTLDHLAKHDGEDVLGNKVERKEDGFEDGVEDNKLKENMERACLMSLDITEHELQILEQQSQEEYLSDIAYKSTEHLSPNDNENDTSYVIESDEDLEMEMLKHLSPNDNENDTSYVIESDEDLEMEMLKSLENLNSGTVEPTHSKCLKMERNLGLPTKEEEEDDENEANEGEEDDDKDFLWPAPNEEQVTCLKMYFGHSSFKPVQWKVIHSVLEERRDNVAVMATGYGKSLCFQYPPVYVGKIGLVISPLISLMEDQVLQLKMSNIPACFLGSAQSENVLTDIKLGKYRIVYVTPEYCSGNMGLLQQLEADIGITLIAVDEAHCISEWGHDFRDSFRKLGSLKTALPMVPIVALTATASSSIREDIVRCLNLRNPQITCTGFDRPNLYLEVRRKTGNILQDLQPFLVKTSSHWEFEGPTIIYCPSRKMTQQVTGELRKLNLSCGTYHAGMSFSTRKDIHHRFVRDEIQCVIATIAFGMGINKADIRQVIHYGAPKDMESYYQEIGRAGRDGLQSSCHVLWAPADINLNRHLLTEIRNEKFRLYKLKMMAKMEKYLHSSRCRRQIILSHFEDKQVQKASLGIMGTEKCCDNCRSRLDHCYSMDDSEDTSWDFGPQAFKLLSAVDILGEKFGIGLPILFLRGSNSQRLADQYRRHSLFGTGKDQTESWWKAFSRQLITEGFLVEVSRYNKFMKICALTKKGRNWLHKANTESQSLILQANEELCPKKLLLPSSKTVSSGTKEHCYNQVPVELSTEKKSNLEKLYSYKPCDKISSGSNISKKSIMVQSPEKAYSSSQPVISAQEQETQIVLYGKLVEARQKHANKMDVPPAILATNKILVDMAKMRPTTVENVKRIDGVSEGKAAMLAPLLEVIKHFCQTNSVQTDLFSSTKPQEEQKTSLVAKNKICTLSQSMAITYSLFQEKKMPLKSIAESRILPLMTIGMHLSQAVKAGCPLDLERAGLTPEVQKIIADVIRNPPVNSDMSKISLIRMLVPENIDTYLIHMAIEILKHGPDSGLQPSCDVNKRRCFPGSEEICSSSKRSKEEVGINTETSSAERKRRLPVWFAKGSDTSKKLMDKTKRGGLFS

Turning to `O=c1[nH]cc(F)c(=O)[nH]1` [5-fluorouracil], the “proliferation of SW48 cells, single agent” value (“proliferation of SW48 cells” for short) in the assay on SW48 [1] is “inhibited”.

`C[C@@]1(CO)[C@H](O)CC[C@@]2(C)[C@H]1CC[C@H]1C[C@@H]3C[C@@]12CC[C@]3(O)CO` [Aphidicolin, aphidicolin]: the “proliferation of SW48 cells” value with SW48 [1] was “inhibited”.

For `CC[C@@]1(O)C(=O)OCc2c1cc1n(c2=O)Cc2cc3ccccc3nc2-1` [Camptothecin, camptothecin], the “proliferation of SW48 cells” value with SW48 [1] is “inhibited”.

With `CCc1c(N2CCN(C(=O)c3ncccc3O)CC2)c(=O)n2nc(C3=CCOCC3)nc2n1CC(=O)Nc1ccc(C(F)(F)F)cc1C` [Compound B], in the assay with SW48 [1], the “proliferation of SW48 cells” value is listed as “inhibited”. For the same compound, the “proliferation of HCT116 cells, single agent” value in the assay with HCT116 was “inhibited”.

Consider `COc1cccc2c1C(=O)c1c(O)c3c(c(O)c1C2=O)C[C@@](O)(C(=O)CO)C[C@@H]3O[C@H]1C[C@H](N)[C@H](O)[C@H](C)O1` [Doxorubicin, doxorubicin], for which the “proliferation of SW48 cells” value in the assay on SW48 [1] is “inhibited”. In the assay on HCT116, the “proliferation of HCT116 cells, single agent” value is listed as “inhibited”.

Take `Nc1ccn([C@@H]2O[C@H](CO)[C@@H](O)C2(F)F)c(=O)n1` [Gemcitabin, gemcitabine]: the “proliferation of SW48 cells” value in the assay on SW48 [1] is “inhibited”.

With `COc1ncc(-c2nc3c(n2C(C)C)[C@H](c2ccc(Cl)cc2)N(c2cc(Cl)cn(C)c2=O)C3=O)c(OC)n1` [HDM201], in the assay with SW48 [1], the “proliferation of SW48 cells” value is on record as “to some extent”.

On to `C[C@@H]1CN(CC(=O)Nc2ccc3c(c2)Cc2cccc(-c4cc(=O)cc(N5CCOCC5)o4)c2S3)C[C@H](C)O1` [KU-60019], for which the “proliferation of SW48 cells” value in the assay with SW48 [1] was “inhibited”.

For `O=c1cc(N2CCOCC2)oc2c(-c3cccc4c3sc3ccccc34)cccc12` [NU7441 (KU-57788)], in the assay with SW48 [1], the “proliferation of SW48 cells” value was “inhibited”.

Take `CCc1nc2c(NC(C)(C)C)nc(Nc3ccc4nc(OCCN5CCOCC5)ccc4c3)nc2[nH]1` [QAP1]: the “proliferation of SW48 cells” value in the assay with SW48 [1] is on record as “inhibited”.

Turning to `CCc1c(N2CCN(C(=O)c3ncccc3O)CC2)c(=O)n2nc(C3=CCN(C(=O)CCC(=O)N[C@H](C(=O)N4C[C@H](O)C[C@H]4C(=O)N[C@@H](C)c4ccc(-c5scnc5C)cc4)C(C)(C)C)CC3)nc2n1CC(=O)Nc1ccc(C(F)(F)F)cc1C` [X, (2S,4R)-1-((S)-2-(4-(4-(5-ethyl-6-(4-(3-hydroxypicolinoyl)piperazin-1-yl)-4-(2-((2-methyl-4-(trifluoromethyl)phenyl)amino)-2-oxoethyl)-7-oxo-4,7-dihydro-[1,2,4]triazolo[1,5-a]pyrimidin-2-yl)-3,6-dihydropyridin-1(2H)-yl)-4-oxobutanamido)-3,3-dimethylbutanoyl)-4-hydroxy-N—((S)-1-(4-(4-methylthiazol-5-yl)phenyl)ethyl)pyrrolidine-2-carboxamide], at WRN, 160 nM corresponded to half-maximal inhibition (IC50). The values for the 50% growth inhibitory concentration (GI50) in the assay on SW48 [2] and in the assay on DLD1-WRN-KO were 3840 nM and greater than 10 µM, respectively.

Compound `CCc1c(N2CCN(C(=O)c3ncccc3O)CC2)c(=O)n2nc(C3=CCN(C(=O)[C@H](CC(C)C)NC(=O)[C@@H](O)[C@H](N)Cc4ccccc4)CC3)nc2n1CC(=O)Nc1ccc(C(F)(F)F)cc1C` [Y, (2S,3R)-3-amino-N—((S)-1-(4-(5-ethyl-6-(4-(3-hydroxypicolinoyl)piperazin-1-yl)-4-(2-((2-methyl-4-(trifluoromethyl)phenyl)amino)-2-oxoethyl)-7-oxo-4,7-dihydro-[1,2,4]triazolo[1,5-a]pyrimidin-2-yl)-3,6-dihydropyridin-1(2H)-yl)-4-methyl-1-oxopentan-2-yl)-2-hydroxy-4-phenylbutanamide] came in with an IC50 against WRN of 140 nM. Further, the GI50 with SW48 [2] is 1190 nM; in the assay with DLD1-WRN-KO, greater than 10 µM.

`CCc1c(N2CCN(C(=O)c3ncccc3O)CC2)c(=O)n2nc(C3=CCN(C(=O)CCCCCOc4ccc5c(c4)C(=O)N(C4CCC(=O)NC4=O)C5)CC3)nc2n1CC(=O)Nc1ccc(C(F)(F)F)cc1C` (stereo not drawn) [Z, 2-(2-(1-(6-((2-(2,6-dioxopiperidin-3-yl)-3-oxoisoindolin-5-yl)oxy)hexanoyl)-1,2,3,6-tetrahydropyridin-4-yl)-5-ethyl-6-(4-(3-hydroxypicolinoyl)piperazin-1-yl)-7-oxo-[1,2,4]triazolo[1,5-a]pyrimidin-4(7H)-yl)-N-(2-methyl-4-(trifluoromethyl)phenyl)acetamide] registered an IC50 on WRN of 90 nM. Further, the figures for the GI50 in the assay on SW48 [2] and in the assay with DLD1-WRN-KO were 1310 nM and greater than 10 µM, respectively.

Turning to `N.N.[Cl][Pt][Cl]` [cisplatin], the “proliferation of SW48 cells” value with SW48 [1] is on record as “inhibited”.

In the case of `CC(=O)Nc1cccc(-n2c(=O)n(C3CC3)c(=O)c3c(Nc4ccc(I)cc4F)n(C)c(=O)c(C)c32)c1` [trametinib], in assay [3], the “effect on tumor growth” value is “no effect”.

As for bleomycin, in the assay on SW48 [1], the “proliferation of SW48 cells” value is reported as “inhibited”.
